Assay results from patent US20260232740A1, “COMBINATIONS COMPRISING VITAMIN B2 AND LACTOBACILLUS RHAMNOSUS” (DSM IP Assets B.V., priority 2022, published 2026).

How the values were obtained:
Bifidobacteriaceae = test: Long-term SHIME fermentation (colon model), 16S rRNA gene sequencing: relative abundance of Bifidobacteriaceae in mucus of transverse colon; set-up: species or system human; details: relative abundance (%), end of three-week treatment vs end of control period (n=3), probiotic 1*1010 CFU/reactor, vitamin B2 10 mg/day, p<0.05
Source text: (§1) The typical reactor setup of the SHIMER, representing the gastrointestinal tract of the adult human, was described by Molly et al. (1993) Applied Microbiology and Biotechnology 39 (2): 254-258. Inoculum preparation, retention time, pH, temperature settings and reactor feed composition were previously described by Possemiers et al. (2004) FEMS Microbiol Ecol. 49 (3): 495-507. Compared to the typical setup of the SHIME, the long-term SHIME experiment used for this example included some adaptations. In one reactor, at first, the conditions of the stomach were simulated, before being changed by the computer to conditions simulating the small intestine. […]
(§2) Samples for quantitative 16S-targeted Illumina sequencing were collected 3×/week during the last week of the control and treatment period. […] The obtained high-resolution proportional phylogenetic information (i.e., proportional abundances (%)) was combined with an accurate quantification of total bacterial cells via flow cytometry to obtain quantitative data at phylum, family, and species level. […] Samples were analyzed on a BD Facsverse (BDBiosciences, Erembodegem, Belgium) using the high-flow-rate setting and bacteria were separated from medium debris and signal noise by applying a threshold level of 200 on the SYTO channel. […]

[1] = test system: Bifidobacterium adolescentis; test: Long-term SHIME fermentation (colon model), 16S rRNA gene sequencing and flow cytometry: levels of Bifidobacterium adolescentis in lumen of transverse colon; set-up: species or system human; details: average levels (log cells/mL), end of three-week treatment vs end of control period (n=3), probiotic 1*1010 CFU/reactor, vitamin B2 10 mg/day, p<0.05
Source text: as §1, §2

Lactobacillus rhamnosus GG
abundance of Bifidobacteriaceae compared to the control (Bifidobacteriaceae): did not significantly change | abundance of Bifidobacterium adolescentis compared to the control [1]: did not significantly change
